Data from the supplement of paper PMC10307832.

Assays:
Assay in all cases: relative viability (nuclei count vs DMSO), 5 days (fraction); higher = more cells survive
SW 1573 = test system: SW 1573
How it was run: (§1)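 The day after seeding in 1536-well plates, lung cancer cell lines were treated by pin tool with a single drug, or with a fixed anchor-drug dose together with five library-drug doses (not always all listed) in √10 steps. After 5 days, a combined fix-and-stain solution (final 0.05% Triton X-100, 1% formaldehyde, 1 ug/ml Hoechst) was added. Nuclei counted on 4× images gave relative viability as treated counts over vehicle counts, reported as the median of duplicate plates.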

LOU-NH91 = test system: LOU-NH91
How it was run: as §1

HCC-44 = test system: HCC-44
How it was run: as §1

NCI-H1793 = test system: NCI-H1793
How it was run: as §1

HOP-62 = test system: HOP-62
How it was run: as §1

EMC-BAC-2 = test system: EMC-BAC-2
How it was run: as §1

NCI-H727 = test system: NCI-H727
How it was run: as §1

NCI-H2405 = test system: NCI-H2405
How it was run: as §1

NCI-H2170 = test system: NCI-H2170
How it was run: as §1

EPLC-272H = test system: EPLC-272H
How it was run: as §1

NCI-H1437 = test system: NCI-H1437
How it was run: as §1

NCI-H2009 = test system: NCI-H2009
How it was run: as §1

NCI-H441 = test system: NCI-H441
How it was run: as §1

NCI-H520 = test system: NCI-H520
How it was run: as §1

NCI-H460 = test system: NCI-H460
How it was run: as §1

NCI-H2126 = test system: NCI-H2126
How it was run: as §1

ChaGo-K-1 = test system: ChaGo-K-1
How it was run: as §1

NCI-H2023 = test system: NCI-H2023
How it was run: as §1

NCI-H2347 = test system: NCI-H2347
How it was run: as §1

NCI-H647 = test system: NCI-H647
How it was run: as §1

COCC1(CO)C(=O)C2CCN1CC2 (configuration not stated) [PRIMA-1MET] + CC1(C)CCC(c2ccc(Cl)cc2)=C(CN2CCN(c3ccc(C(=O)NS(=O)(=O)c4ccc(N[C@H](CCN5CCOCC5)CSc5ccccc5)c(S(=O)(=O)C(F)(F)F)c4)cc3)CC2)C1 [Navitoclax] (partner 0.5 µM)
relative viability (SW 1573; first compound 0.2 µM): 1.12
relative viability (SW 1573; first compound 0.6325 µM): 0.614
relative viability (SW 1573; first compound 2 µM): 0.789
relative viability (SW 1573; first compound 6.325 µM): 0.0618
relative viability (SW 1573; first compound 20 µM): 0.034
relative viability (LOU-NH91; first compound 0.2 µM): 0.729
relative viability (LOU-NH91; first compound 0.6325 µM): 0.677
relative viability (LOU-NH91; first compound 2 µM): 0.589
relative viability (LOU-NH91; first compound 6.325 µM): 0.601
relative viability (LOU-NH91; first compound 20 µM): 0.383
relative viability (HCC-44; first compound 0.2 µM): 1.05
relative viability (HCC-44; first compound 0.6325 µM): 0.689
relative viability (HCC-44; first compound 2 µM): 0.916
relative viability (HCC-44; first compound 6.325 µM): 1.03
relative viability (HCC-44; first compound 20 µM): 0.931
relative viability (NCI-H1793; first compound 0.2 µM): 0.576
relative viability (NCI-H1793; first compound 0.6325 µM): 0.446
relative viability (NCI-H1793; first compound 6.325 µM): 0.609
relative viability (NCI-H1793; first compound 20 µM): 0.49
relative viability (HOP-62; first compound 0.2 µM): 1.44
relative viability (HOP-62; first compound 0.6325 µM): 1.01
relative viability (HOP-62; first compound 2 µM): 0.94
relative viability (HOP-62; first compound 6.325 µM): 0.962
relative viability (HOP-62; first compound 20 µM): 0.839
relative viability (EMC-BAC-2; first compound 0.2 µM): 1.18
relative viability (EMC-BAC-2; first compound 0.6325 µM): 1.16
relative viability (EMC-BAC-2; first compound 2 µM): 1.13
relative viability (EMC-BAC-2; first compound 6.325 µM): 1.25
relative viability (EMC-BAC-2; first compound 20 µM): 1.15
relative viability (NCI-H727; first compound 0.2 µM): 0.54
relative viability (NCI-H727; first compound 0.6325 µM): 0.41
relative viability (NCI-H727; first compound 2 µM): 0.398
relative viability (NCI-H727; first compound 6.325 µM): 0.311
relative viability (NCI-H727; first compound 20 µM): 0.105
relative viability (NCI-H2405; first compound 0.2 µM): 0.676
relative viability (NCI-H2405; first compound 0.6325 µM): 0.989
relative viability (NCI-H2405; first compound 6.325 µM): 0.52
relative viability (NCI-H2405; first compound 20 µM): 0.078
relative viability (NCI-H2170; first compound 0.2 µM): 0.621
relative viability (NCI-H2170; first compound 0.6325 µM): 0.543
relative viability (NCI-H2170; first compound 2 µM): 0.456
relative viability (NCI-H2170; first compound 6.325 µM): 0.622
relative viability (NCI-H2170; first compound 20 µM): 0.554
relative viability (EPLC-272H; first compound 0.2 µM): 1.33
relative viability (EPLC-272H; first compound 0.6325 µM): 0.933
relative viability (EPLC-272H; first compound 2 µM): 1.15
relative viability (EPLC-272H; first compound 6.325 µM): 1.15
relative viability (EPLC-272H; first compound 20 µM): 0.989
relative viability (NCI-H1437; first compound 0.2 µM): 1.14
relative viability (NCI-H1437; first compound 0.6325 µM): 1.05
relative viability (NCI-H1437; first compound 2 µM): 1.08
relative viability (NCI-H1437; first compound 6.325 µM): 1.14
relative viability (NCI-H1437; first compound 20 µM): 0.968
relative viability (NCI-H2009; first compound 0.2 µM): 1.2
relative viability (NCI-H2009; first compound 0.6325 µM): 1.23
relative viability (NCI-H2009; first compound 2 µM): 1.23
relative viability (NCI-H2009; first compound 6.325 µM): 1.16
relative viability (NCI-H2009; first compound 20 µM): 0.302
relative viability (NCI-H441; first compound 0.2 µM): 0.561
relative viability (NCI-H441; first compound 0.6325 µM): 0.334
relative viability (NCI-H441; first compound 2 µM): 1.02
relative viability (NCI-H441; first compound 6.325 µM): 0.644
relative viability (NCI-H441; first compound 20 µM): 0.0807
relative viability (NCI-H520; first compound 0.2 µM): 1.25
relative viability (NCI-H520; first compound 0.6325 µM): 1.06
relative viability (NCI-H520; first compound 6.325 µM): 1.17
relative viability (NCI-H520; first compound 20 µM): 0.131
relative viability (NCI-H460; first compound 0.2 µM): 1.44
relative viability (NCI-H460; first compound 0.6325 µM): 0.971
relative viability (NCI-H460; first compound 2 µM): 1.06
relative viability (NCI-H460; first compound 6.325 µM): 0.528
relative viability (NCI-H460; first compound 20 µM): 0.0099
relative viability (NCI-H2126; first compound 0.2 µM): 0.931
relative viability (NCI-H2126; first compound 0.6325 µM): 0.833
relative viability (NCI-H2126; first compound 2 µM): 0.897
relative viability (NCI-H2126; first compound 6.325 µM): 0.852
relative viability (NCI-H2126; first compound 20 µM): 0.839
relative viability (ChaGo-K-1; first compound 0.2 µM): 1.08
relative viability (ChaGo-K-1; first compound 0.6325 µM): 0.667
relative viability (ChaGo-K-1; first compound 2 µM): 1.11
relative viability (ChaGo-K-1; first compound 6.325 µM): 1.11
relative viability (ChaGo-K-1; first compound 20 µM): 0.404
relative viability (NCI-H2023; first compound 0.2 µM): 1.04
relative viability (NCI-H2023; first compound 0.6325 µM): 0.999
relative viability (NCI-H2023; first compound 2 µM): 0.992
relative viability (NCI-H2023; first compound 6.325 µM): 1.07
relative viability (NCI-H2023; first compound 20 µM): 0.977
relative viability (NCI-H2347; first compound 0.2 µM): 0.887
relative viability (NCI-H2347; first compound 0.6325 µM): 0.708
relative viability (NCI-H2347; first compound 2 µM): 0.519
relative viability (NCI-H2347; first compound 6.325 µM): 0.872
relative viability (NCI-H2347; first compound 20 µM): 0.754
relative viability (NCI-H647; first compound 0.2 µM): 1.15
relative viability (NCI-H647; first compound 0.6325 µM): 1
relative viability (NCI-H647; first compound 2 µM): 0.889
relative viability (NCI-H647; first compound 6.325 µM): 1.24
relative viability (NCI-H647; first compound 20 µM): 0.909
